Test results as given in paper PMC10530720, “Antimicrobial Activity and Toxicity of Newly Synthesized 4-[4-(benzylamino)butoxy]-9H-carbazole Derivatives” (International Journal of Molecular Sciences, 2023).
In brackets after ≈: the same amount, converted by molar mass. Read-outs that look alike come from different tables or passages of the source.

Experiments:
[1] = tested on: Aspergillus flavus ATCC 9643; assay: Broth microdilution (CLSI), growth, MIC and MFC; assay type: cell-based; conditions: for MBC/MFC: A. flavus (MFC); for MIC: Aspergillus flavus, ATCC9643, A. flavus, 48 h at 37 °C
[2] = tested on: Candida albicans ATCC 10231; assay: Broth microdilution (CLSI), growth, MIC and MFC; assay type: cell-based; conditions: for MBC/MFC: C. albicans (MFC); for MIC / inhibition at 64 µg/mL: Candida albicans; for MIC: ATCC10231, C. albicans, 48 h at 37 °C; for inhibition at 64 µg/mL: ATCC10231, 64 µg/mL (highest tested concentration), read-out: C. albicans growth inhibition
[3] = tested on: Pseudomonas aeruginosa ATCC 15442; assay: Broth microdilution (CLSI), growth, MIC and MBC; assay type: cell-based; conditions: for MBC/MFC: P. aeruginosa (MBC); for MIC: Pseudomonas aeruginosa, ATCC15442, P. aeruginosa, 24 h at 37 °C
[4] = tested on: Escherichia coli ATCC 25922; assay: Broth microdilution (CLSI), growth, MIC and MBC; assay type: cell-based; conditions: for MBC/MFC: E. coli (MBC); for MIC: Escherichia coli, ATCC25922, E. coli, 24 h at 37 °C; for antimicrobial properties against E. coli, ranking in words: among compounds 1–10
[5] = tested on: Staphylococcus aureus ATCC 29213; assay: Broth microdilution (CLSI), growth, MIC and MBC; assay type: cell-based; conditions: for MBC/MFC: S. aureus (MBC); for MIC / inhibition at 16 µg/mL: Staphylococcus aureus; for MIC: ATCC29213, S. aureus, 24 h at 37 °C; for inhibition at 16 µg/mL: ATCC29213, 16 µg/mL, read-out: inhibition of S. aureus growth
[6] = tested on: Staphylococcus epidermidis ATCC 12228; assay: Broth microdilution (CLSI), growth, MIC and MBC; assay type: cell-based; conditions: for MBC/MFC: S. epidermidis (MBC); for MIC: Staphylococcus epidermidis, ATCC12228, S. epidermidis, 24 h at 37 °C
[7] = tested on: human fibroblast BJ ATCC CRL-2522 cell line; assay: Cytotoxic activity, MTT; assay type: cell-based; conditions: for toxicity to human fibroblasts, ranking in words: among compounds 1–10
Procedure: The cytotoxic properties of the tested compounds were examined using the human fibroblast BJ ATCC CRL-2522 cell line. The fibroblasts, with a final density of 1 × 10^5 cells per well, were suspended in EMEM medium containing FBS (10%) and antibiotics (penicillin, 100 IU/mL and streptomycin, 100 µg/mL), and incubated in 96-well microplates for 24 h in a humidified atmosphere with 5% CO2 at 37 °C. Next, the EMEM medium was replaced with a fresh medium, with the addition of the tested compounds in the concentration range of 1–64 µg/mL. Cell cultures without the tested derivatives were also prepared, as control samples. All the samples were incubated again for 24 h, under the same conditions. Then, the growth medium was removed from above the fibroblasts, and MTT solution (500 µg/mL) was added to each well. The plates were incubated for 4 h under the same conditions. The MTT solution was removed, and the wells were refilled with 50 µL of DMSO, to dissolve the formazan crystals produced. The spectrophotometric measurement of the samples was carried out at λ = 550 nm, using a SpectraMax i3x Multi-Mode Microplate Reader (Molecular Devices Ltd., Wokingham, UK).
The cell viability was calculated as a percentage of the control samples untreated with the tested compounds with a standard deviation. The experiment with n = 4 was carried out in four independent repetitions.

A. fumigatus = tested on: A. fumigatus; design: method as in PMID 18570365; conditions: cited from earlier work
S. aureus [8] = tested on: S. aureus; design: method as in Salih et al. 12; conditions: ref Salih et al. 12; cited from earlier work
C. albicans = tested on: C. albicans; design: method as in PMID 18570365; conditions: cited from earlier work
E. coli [9] = tested on: E. coli; design: method as in Salih et al. 12; conditions: ref Salih et al. 12; cited from earlier work
E. coli [10] = tested on: E. coli; design: method as in PMID 34884610; conditions: highest tested concentration; cited from earlier work
S. aureus [11] = tested on: S. aureus; design: method as in PMID 34884610; conditions: cited from earlier work

Row | Structure (SMILES) | MBC/MFC [1] | MIC [1] | MBC/MFC [2] | MIC [2] | MBC/MFC [3] | MIC [3] | MBC/MFC [4] | MIC [4] | melting point | MBC/MFC [5] | MIC [5] | MBC/MFC [6] | MIC [6] | also measured
1 | C[C@@H]1[C@H](O)[C@@H](C)/C=C/C=C/C=C/C=C/C=C/C=C/C=C/[C@H](O[C@@H]2O[C@H](C)[C@@H](O)[C@H](N)[C@@H]2O)C[C@@H]2O[C@](O)(C[C@@H](O)C[C@@H](O)[C@H](O)CC[C@@H](O)C[C@@H](O)CC(=O)O[C@H]1C)C[C@H](O)[C@H]2C(=O)O [Amphotericin B, reference compound] | 16 µg/mL (≈ 17.3 µM) | 4 µg/mL (≈ 4.33 µM) | 1 µg/mL (≈ 1.08 µM) | 1 µg/mL (≈ 1.08 µM) |  |  |  |  |  |  |  |  |  | 
2 | Br.Fc1cccc(CNCCCCOc2cccc3[nH]c4ccccc4c23)c1 [Compound 7, 4-[4-(3-fluorophenylmethylamino)butoxy]-9H-carbazole hydrobromide] | >64 µg/mL | > 64 µg/mL | >64 µg/mL | > 64 µg/mL | >64 µg/mL | > 64 µg/mL | >64 µg/mL | > 64 µg/mL | 181 to 183 °C | 64 µg/mL | 32 µg/mL | 64 µg/mL | 32 µg/mL | 
3 | Br.C[C@@H](NCCCCOc1cccc2[nH]c3ccccc3c12)c1ccccc1 [Compound 9, (R)-4-[4-(1-phenylethylamino)butoxy]-9H-carbazole hydrobromide] | >64 µg/mL | > 64 µg/mL | >64 µg/mL | > 64 µg/mL | >64 µg/mL | > 64 µg/mL | >64 µg/mL | > 64 µg/mL | 92 to 96 °C | 64 µg/mL | 32 µg/mL | 64 µg/mL | 32 µg/mL | decrease in cell viability ([7]; 4 µg/mL, human fibroblasts, 24 h): 40%; toxicity to human fibroblasts, ranking in words [7]: highest toxicity
4 | Br.Fc1ccc(CNCCCCOc2cccc3[nH]c4ccccc4c23)cc1 [Compound 8, 4-[4-(4-fluorophenylmethylamino)butoxy]-9H-carbazole hydrobromide] | >64 µg/mL | > 64 µg/mL | >64 µg/mL | > 64 µg/mL | >64 µg/mL | > 64 µg/mL | >64 µg/mL | > 64 µg/mL | 203 to 206 °C | 64 µg/mL | 32 µg/mL | 64 µg/mL | 32 µg/mL | reduction in E. coli growth ([4]; 64 µg/mL (highest tested concentration)): 50%; antimicrobial properties against E. coli, ranking in words [4]: strongest antimicrobial properties; inhibition at 16 µg/mL [5]: 65%
5 | Br.C[C@H](NCCCCOc1cccc2[nH]c3ccccc3c12)c1ccccc1 [Compound 10, (S)-4-[4-(1-phenylethylamino)butoxy]-9H-carbazole hydrobromide] | >64 µg/mL | > 64 µg/mL | >64 µg/mL | > 64 µg/mL | >64 µg/mL | > 64 µg/mL | >64 µg/mL | > 64 µg/mL |  | 64 µg/mL | 32 µg/mL | 64 µg/mL | 32 µg/mL | 
6 | C[C@H](NCCCCOc1cccc2[nH]c3ccccc3c12)c1ccccc1 [Compound 5, (S)-4-[4-(1-phenylethylamino)butoxy]-9H-carbazole] | >64 µg/mL | > 64 µg/mL | >64 µg/mL | > 64 µg/mL | >64 µg/mL | > 64 µg/mL | >64 µg/mL | > 64 µg/mL |  | 64 µg/mL (≈ 179 µM) | 32 µg/mL (≈ 89.3 µM) | 64 µg/mL (≈ 179 µM) | 32 µg/mL (≈ 89.3 µM) | 
7 | Fc1ccc(CNCCCCOc2cccc3[nH]c4ccccc4c23)cc1 [Compound 3, 4-[4-(4-fluorophenylmethylamino)butoxy]-9H-carbazole] | >64 µg/mL | > 64 µg/mL | >64 µg/mL | > 64 µg/mL | >64 µg/mL | > 64 µg/mL | >64 µg/mL | > 64 µg/mL |  |  | 32 µg/mL (≈ 88.3 µM) |  | 32 µg/mL (≈ 88.3 µM) | antimicrobial properties against E. coli, ranking in words [4]: strongest antimicrobial properties
8 | Fc1cccc(CNCCCCOc2cccc3[nH]c4ccccc4c23)c1 [Compound 2, 4-[4-(3-fluorophenylmethylamino)butoxy]-9H-carbazole] | >64 µg/mL | > 64 µg/mL | >64 µg/mL | > 64 µg/mL | >64 µg/mL | > 64 µg/mL | >64 µg/mL | > 64 µg/mL |  | 32 µg/mL (≈ 88.3 µM) | 32 µg/mL (≈ 88.3 µM) | 32 µg/mL (≈ 88.3 µM) | 32 µg/mL (≈ 88.3 µM) | inhibition at 16 µg/mL [5]: > 60%; inhibition at 64 µg/mL [2]: ~60%
9 | Fc1ccccc1CNCCCCOc1cccc2[nH]c3ccccc3c12 [Compound 1, 4-[4-(2-fluorophenylmethylamino)butoxy]-9H-carbazole] | >64 µg/mL | > 64 µg/mL | >64 µg/mL | > 64 µg/mL | >64 µg/mL | > 64 µg/mL | >64 µg/mL | > 64 µg/mL | 179 to 181 °C |  | 64 µg/mL (≈ 177 µM) |  | 64 µg/mL (≈ 177 µM) | reduction of cell viability ([7]; 32 µg/mL, human fibroblasts, 24 h): about 60%; toxicity to human fibroblasts, ranking in words [7]: least toxic
10 | C[C@@H](NCCCCOc1cccc2[nH]c3ccccc3c12)c1ccccc1 [Compound 4, (R)-4-[4-(1-phenylethylamino)butoxy]-9H-carbazole] | >64 µg/mL | > 64 µg/mL | >64 µg/mL | > 64 µg/mL | >64 µg/mL | > 64 µg/mL | >64 µg/mL | > 64 µg/mL |  | 32 µg/mL (≈ 89.3 µM) | 32 µg/mL (≈ 89.3 µM) | 32 µg/mL (≈ 89.3 µM) | 32 µg/mL (≈ 89.3 µM) | inhibition at 16 µg/mL [5]: > 60%
11 | CC1=NN(c2ccccc2)C(=O)C1=NNNC(=O)Cn1c2ccccc2c2ccccc21 [derivative 8, (4-[3-(9H-Carbazol-9-yl-acetyl)triazanylidene]-5-methyl-2-phenyl-2,4-dihydro-3H-pyrazol-3-one)] |  |  |  |  |  |  |  |  |  |  |  |  |  | MIC (A. fumigatus): 10.3 µg/mL (≈ 24.3 µM); MIC (S. aureus [8]): 1.1 µg/mL (≈ 2.59 µM); MIC (C. albicans): 9.6 µg/mL (≈ 22.6 µM); MIC (E. coli [9]): 6.4 µg/mL (≈ 15.1 µM)
12 | Br.Fc1ccccc1CNCCCCOc1cccc2[nH]c3ccccc3c12 [Compound 6, 4-[4-(2-fluorophenylmethylamino)butoxy]-9H-carbazole hydrobromide] | >64 µg/mL | > 64 µg/mL | >64 µg/mL | > 64 µg/mL | >64 µg/mL | > 64 µg/mL | >64 µg/mL | > 64 µg/mL | 180 to 182 °C |  | 64 µg/mL |  | 64 µg/mL | antimicrobial properties against E. coli, ranking in words [4]: weakest antimicrobial activity; inhibition at 64 µg/mL [2]: 15%
13 | c1ccc(CNCCCCOc2cccc3[nH]c4ccccc4c23)cc1 [parent compound, 4-[4-(benzylamino)butoxy]-9H-carbazole] |  |  |  |  |  |  |  |  |  |  |  |  |  | inhibition of E. coli growth (E. coli [10]): 10%; reduction in bacterial growth (S. aureus) (S. aureus [11]; 20 µg/mL): 22%; MIC (S. aureus [11]; S. aureus): 30 µg/mL (≈ 87.1 µM)
